Test results as given in the supplement of paper PMC8967900.

What was measured:
Assay in all cases: selective drug sensitivity score (sDSS, relative to normal bone marrow) (sDSS (score)); higher = more potent and effective on the cell line relative to normal bone marrow cells
Details in all cases: 72 h
NALM-16 = test system: NALM-16
P30-OHKUBO = test system: P30-OHKUBO
RCH-ACV = test system: RCH-ACV
HPB-ALL = test system: HPB-ALL
COG-LL-402h = test system: COG-LL-402h
PF-382 = test system: PF-382
COG-LL-355h = test system: COG-LL-355h
JURKAT = test system: JURKAT
COG-LL-319h = test system: COG-LL-319h
REH = test system: REH
TANOUE = test system: TANOUE
COG-LL-332h = test system: COG-LL-332h
KASUMI-2 = test system: KASUMI-2
COG-LL-317 = test system: COG-LL-317
MHH-CALL-3 = test system: MHH-CALL-3
KASUMI-10 = test system: KASUMI-10
DND-41 = test system: DND-41
HAL-01 = test system: HAL-01
SUP-B15 = test system: SUP-B15
CCRF-HSB2 = test system: CCRF-HSB2
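Note: ALL cell lines in 384-well plates, five doses spanning 10,000-fold, each plate scaled between vehicle and 100 µmol/L benzalkonium chloride controls, sDSS an adapted area-under-curve metric.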

Row | SMILES | selective drug sensitivity score (NALM-16) | selective drug sensitivity score (P30-OHKUBO) | selective drug sensitivity score (RCH-ACV) | selective drug sensitivity score (HPB-ALL) | selective drug sensitivity score (COG-LL-402h) | selective drug sensitivity score (PF-382) | selective drug sensitivity score (COG-LL-355h) | selective drug sensitivity score (JURKAT) | selective drug sensitivity score (COG-LL-319h) | selective drug sensitivity score (REH) | selective drug sensitivity score (TANOUE) | selective drug sensitivity score (COG-LL-332h) | selective drug sensitivity score (KASUMI-2) | selective drug sensitivity score (COG-LL-317) | selective drug sensitivity score (MHH-CALL-3) | selective drug sensitivity score (KASUMI-10) | selective drug sensitivity score (DND-41) | selective drug sensitivity score (HAL-01) | selective drug sensitivity score (SUP-B15) | selective drug sensitivity score (CCRF-HSB2)
1 | CNS(=O)(=O)Nc1nccc(Cc2c(C)c3ccc(Oc4ncccn4)cc3oc2=O)c1F (top concentration 1000 nM) | 0.72 | -1.18 | 0.42 | -1.18 | -1.18 | -0.18 | 0.02 | 0.92 | -1.18 | -0.38 | -1.18 | -1.08 | 1.12 | -1.08 | -1.18 | -1.18 | 3.92 | 0.82 | 10.1 | -1.18
2 | C[C@H]1Oc2cc(cnc2N)-c2c(nn(C)c2C#N)CN(C)C(=O)c2ccc(F)cc21 (top concentration 1000 nM) | -0.72 | -0.02 | 3.38 | -0.72 | -0.72 | -0.72 | 2.18 | -0.72 | 7.38 | -0.72 | -0.72 | -0.72 | 4.68 | -0.72 | -0.72 | -0.72 | -0.72 | 4.18 | -0.72 | -0.72
3 | CCc1cncnc1N1CCN(Cc2nc3cc(C(F)(F)F)ccc3[nH]2)CC1 (top concentration 10000 nM) | 0.06 | 5.26 | 6.46 | 0.96 | -0.84 | 2.96 | -0.14 | 7.36 | 1.46 | 6.26 | 3.26 | 1.46 | 2.76 | 1.26 | 2.46 | 2.76 | 0.56 | 4.76 | 3.46 | 4.16
4 | CN(C)CC#Cc1ccc(OCCCc2sc(N3CCc4cccc(C(=O)Nc5nc6ccccc6s5)c4C3)nc2C(=O)O)c(F)c1 (top concentration 10000 nM) | -1.24 | -1.44 | -1.54 | 24.9 | 26.4 | 24.4 | 27.2 | 10.9 | 21.7 | -1.84 | -3.34 | 15.7 | 5.86 | 39.8 | 19 | 11 | 34 | 2.06 | 13.6 | 17.1
5 | O=C(NC[C@H](O)CN1CCc2ccccc2C1)c1cc(NC2COC2)ncn1 (top concentration 10000 nM) | -0.06 | 0.84 | 1.24 | 3.44 | 0.34 | -0.06 | -0.06 | -0.06 | 9.34 | -0.06 | -0.06 | 1.54 | -0.06 | 10.6 | -0.06 | -0.06 | -0.06 | -0.06 | 1.54 | 1.64
6 | O=C1Cc2cc(C(=O)NC3C[C@H]4CC[C@@H](C3)N4S(=O)(=O)CC3CCN(CCCC(F)(F)F)CC3)c(Cl)cc2N1 (stereo not given in full) (top concentration 10000 nM) | 0 | 0.5 | 0 | 0.5 | 0 | 0 | 0.9 | 0 | 0 | 3.5 | 0 | 0 | 0 | 0 | 0 | 0 | 0 | 0 | 0 | 0
7 | CC/C(=C(\c1ccc(O)cc1)c1ccc(OCCN(C)C)cc1)c1ccccc1 [4-hydroxytamoxifen] (top concentration 10000 nM) | -2.88 | 4.12 | 0.72 | 0.52 | -3.48 | 2.52 | 1.72 | 2.02 | -4.48 | 4.02 | -2.88 | 0.82 | -3.78 | 0.62 | -2.58 | -1.78 | 2.72 | 1.92 | 0.92 | 1.82
8 | COCC1(CO)C(=O)C2CCN1CC2 (stereo not given) [APR-246] (top concentration 10000 nM) | 2.44 | -0.76 | -1.16 | 2.14 | -1.16 | -1.16 | 2.44 | -1.16 | 7.44 | -1.16 | 4.54 | -0.56 | -1.16 | -1.16 | 0.14 | -1.16 | -1.16 | -0.36 | 0.44 | -1.16
9 | Cc1sc2c(c1C)C(c1ccc(Cl)cc1)=N[C@@H](CC(=O)Nc1ccc(OCCOCCOCCOCCNc3cccc4c3C(=O)N(C3CCC(=O)NC3=O)C4=O)cc1)c1nnc(C)n1-2 (stereo not given in full) [ARV-825] (top concentration 300 nM) | 0.74 | 3.74 | 4.44 | -10.9 | 3.74 | 0.14 | 10.2 | -13.2 | 4.04 | -0.26 | -17.1 | -1.46 | -4.46 | -0.26 | 7.44 | 3.84 | 0.84 | -12.1 | 6.14 | 1.14
10 | COc1cc(OC2CCN(C)CC2)ccc1Nc1ncc2c(n1)n(C1CCCC1)c(=O)n2C [AZ3146] (top concentration 10000 nM) | -2.56 | -0.06 | 1.24 | 3.14 | -0.56 | -0.86 | 2.94 | 0.24 | 7.04 | 1.14 | -4.16 | 1.34 | -4.16 | 0.74 | -4.16 | 3.64 | 0.24 | 2.24 | 1.34 | 1.84
11 | CN(C)CCCOc1ccc(-c2ccc3ncc4c(c3c2)n(C2CCOCC2)c(=O)n4C)cn1 [AZD0156] (top concentration 1000 nM) | -0.06 | 2.04 | 7.24 | 0.24 | 3.34 | 0.64 | 0.74 | -0.06 | 3.84 | 0.84 | -0.06 | 0.64 | 2.84 | -0.06 | -0.06 | -0.06 | 4.14 | 0.64 | 1.14 | 0.94
12 | N#Cc1ccc2[nH]c(O)c(-c3ccc(CN4CCOCC4)cn3)c2c1 [AZD-1080] (top concentration 10000 nM) | 0.48 | 1.78 | 3.98 | -0.02 | 2.08 | -0.02 | 3.98 | -0.02 | 6.28 | 8.28 | -0.02 | -0.02 | 3.48 | 3.38 | 5.18 | 1.88 | -0.02 | -0.02 | 5.08 | 1.08
13 | CN(C)C/C=C/C(=O)Nc1cc2c(Nc3ccc(F)c(Cl)c3)ncnc2cc1O[C@H]1CCOC1 [Afatinib] (top concentration 1000 nM) | -0.84 | 1.56 | 1.26 | -0.84 | 0.46 | -0.84 | 0.46 | 0.16 | -0.84 | 5.46 | -0.84 | -0.84 | -0.84 | -0.84 | 3.96 | -0.84 | -0.84 | 3.06 | -0.84 | 1.96
14 | O=C(Nc1ccc(OC(F)(F)Cl)cc1)c1cnc(N2CC[C@@H](O)C2)c(-c2cc[nH]n2)c1 [Asciminib] (top concentration 1000 nM) | -1.98 | -0.58 | -1.98 | 1.62 | -1.98 | -1.78 | 2.02 | -0.58 | 10 | -1.98 | 1.12 | 5.62 | -1.98 | -0.88 | -0.98 | -1.98 | 0.22 | -0.88 | 26.2 | -1.98
15 | CC[C@@H]1C(=O)N(C)c2cnc(Nc3ccc(C(=O)NC4CCN(C)CC4)cc3OC)nc2N1C1CCCC1 [BI-2536] (top concentration 1000 nM) | 14.5 | 18.3 | 15.5 | 18.2 | 17.2 | 18.7 | 4.84 | 19.2 | 23.6 | 16.4 | -8.46 | 17.4 | 14.1 | 21.2 | 7.94 | 11.9 | 15.6 | 3.64 | 22.9 | 20.1
16 | Cc1ccc(NC(=O)c2ccc(CN3CC[C@H](N(C)C)C3)c(C(F)(F)F)c2)cc1Nc1nccc(-c2cncnc2)n1 [Bafetinib] (top concentration 1000 nM) | 0 | 0 | 0.4 | 0 | 0.5 | 0 | 0.8 | 0 | 1.9 | 0.2 | 0 | 12.3 | 0.3 | 0 | 0 | 0 | 1 | 0 | 21.9 | 9.9
17 | CC[C@H](NC(=O)[C@H](C)NC)C(=O)N1C[C@@H](O)C[C@H]1Cc1c(-c2[nH]c3cc(F)ccc3c2C[C@@H]2C[C@H](O)CN2C(=O)[C@H](CC)NC(=O)[C@H](C)NC)[nH]c2cc(F)ccc12 [Birinapant] (top concentration 1000 nM) | 0.5 | -0.1 | 3.1 | -5.1 | -5.1 | -4.6 | 13.3 | -4.9 | 14.5 | 1.1 | -5.1 | 9.6 | 7.8 | -5 | -5.1 | -4.9 | -5.1 | -5.1 | -3.7 | 5.7
18 | COc1cc2nccc(Oc3ccc(NC(=O)C4(C(=O)Nc5ccc(F)cc5)CC4)cc3)c2cc1OC [Cabozantinib] (top concentration 1000 nM) | 2.68 | -3.62 | -3.62 | -3.02 | -3.62 | -3.62 | 2.18 | -3.62 | -2.22 | 4.58 | -3.62 | -0.12 | -3.62 | -3.62 | -3.62 | 14.1 | -3.62 | 3.88 | 13.5 | 1.98
